One data set in a line: Measurement of surface tension and critical micellar concentrations (rising drop tensiometer). Conditions: critical micellar concentration, rising drop method. The data set is classed as physicochemical. How it is done: The tensiometric measurements were carried out with a drop tensiometer operating by the method of the rising drop ([…] tensiometer, I.T. CONCEPT).
As for “9-octadecenyl betaine mesylate [Esters C18:1]”, the CMC was 1.10^−4 M.

The compound `CCCCCCCCCCCCOS(=O)(=O)[O-].[Na+]` [SDS (C12), sodium dodecyl sulphate, reference compound] gave a CMC of 0.008 M.

Regarding “betainylaminooctadecane mesylate [Amides C18:0]”, the CMC was determined as 0.00014 M.

“betainylaminooctadecenyl mesylate [Amides C18:1]”: the CMC stood at 0.00012 M.

As to “octadecyl betaine mesylate [Esters C18:0]”, the CMC is 8.10^−4 M.

The data set is the same for the next values; noted with them: surface tension at the CMC, rising drop method.
“9-octadecenyl betaine mesylate [Esters C18:1]” came in with a γcmc of 36.6 mN/m.

With `CCCCCCCCCCCCOS(=O)(=O)[O-].[Na+]` [SDS (C12), sodium dodecyl sulphate, reference compound], the γcmc stood at 30.0 mN/m.

In turn, “betainylaminooctadecane mesylate [Amides C18:0]” gave a γcmc of 36.0 mN/m.

As to “betainylaminooctadecenyl mesylate [Amides C18:1]”, the γcmc came out at 36.2 mN/m.

“octadecyl betaine mesylate [Esters C18:0]” gave a γcmc of 37.2 mN/m.

Values taken from patent US20100273694A1, “SURFACTANT COMPOSITION METHOD FOR PRODUCTION THEREOF AND COSMETIC COMPRISING SAID COMPOSITION” (EIFFAGE TRAVAUX PUBLICS, priority 2004, published 2010).
